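Protocol summary: plate cells (96-well), add compound at 5 concentrations, incubate 48 h, interpolate endpoints linearly. TGI denotes the concentration required for complete inhibition of growth.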
Assays:
Assay in all cases: DTP human tumour cell line panel, 48 h
[1] = system: NCI-H23 lung
[2] = system: RXF 393 renal
[3] = system: DU-145 prostate
[4] = system: SF-295 CNS
[5] = system: COLO 205 colon
[6] = system: 786-0 renal
[7] = system: BT-549 breast
[8] = system: HS 578T breast
[9] = system: HT29 colon
[10] = system: CCRF-CEM leukemia
[11] = system: RPMI-8226 leukemia
[12] = system: UACC-62 melanoma
[13] = system: PC-3 prostate
[14] = system: SK-MEL-2 melanoma
[15] = system: EKVX NSCLC
[16] = system: SK-OV-3 ovarian
[17] = system: ACHN renal
[18] = system: U251 CNS
[19] = system: OVCAR-8 ovarian
[20] = system: HL-60(TB) leukemia
[21] = system: UO-31 renal
[22] = system: SK-MEL-28 melanoma
[23] = system: A549 NSCLC
[24] = system: HOP-92 NSCLC
[25] = system: TK-10 renal
[26] = system: KM12 colon
[27] = system: K-562 leukemia
[28] = system: OVCAR-3 ovarian
[29] = system: NCI-H460 lung
[30] = system: HCC-2998 colon
[31] = system: SF-539 CNS
[32] = system: MDA-N
[33] = system: HCT-15 colon
[34] = system: NCI-H226 lung
[35] = system: SW-620 colon
[36] = system: LOX IMVI melanoma
[37] = system: SR leukemia
[38] = system: M14 melanoma
[39] = system: MCF7 breast
[40] = system: T-47D breast
[41] = system: MDA-MB-435
[42] = system: SF-268 CNS
[43] = system: HCT-116 colon
[44] = system: MDA-MB-231 breast
[45] = system: HOP-62 NSCLC
[46] = system: OVCAR-5 ovarian
[47] = system: MOLT-4 leukemia
[48] = system: A498 renal
[49] = system: SN12C renal
[50] = system: SNB-75 CNS
[51] = system: NCI-H522 lung
[52] = system: IGROV1 ovarian
[53] = system: UACC-257 melanoma
[54] = system: OVCAR-4 ovarian
[55] = system: SK-MEL-5 melanoma
[56] = system: CAKI-1 renal
[57] = system: MALME-3M melanoma
[58] = system: SNB-19 CNS

C=C1C(=O)OC2/C=C(/CO)C3(O)CC(O)C(C)(CC(OC(=O)/C(C)=C/C)C12)O3 (stereo not drawn) gave a TGI [1] of 42.9 µM, a TGI [2] of 12.6 µM and a TGI [3] of 41.4 µM. It also gave a TGI [4] greater than 73 µM, a TGI [5] of 14.7 µM and a TGI [6] of 52.3 µM. The TGI [7] was 18.3 µM, the TGI [8] was greater than 100 µM and the TGI [9] was 25 µM. It also gave a TGI [10] greater than 24.6 µM, a TGI [11] of 7.5 µM and a TGI [12] of 21 µM. The TGI [13] was 83.9 µM, the TGI [14] was greater than 66.1 µM and the TGI [15] was 48.5 µM. For the same molecule, the TGI [16] was greater than 61.7 µM, the TGI [17] was 25 µM and the TGI [18] was 48.7 µM. For the same molecule, the TGI [19] was 45.2 µM, the TGI [20] was greater than 23 µM and the TGI [21] was greater than 67.2 µM. It also gave a TGI [22] of 49.5 µM, a TGI [23] greater than 74.6 µM and a TGI [24] of 30.6 µM. For the same molecule, the TGI [25] was 32.1 µM, the TGI [26] was 42 µM and the TGI [27] was greater than 100 µM. The TGI [28] was greater than 67.8 µM, the TGI [29] was 48.9 µM and the TGI [30] was 29 µM. It also gave a TGI [31] of 61.4 µM, a TGI [32] greater than 61 µM and a TGI [33] of 31.6 µM. For the same molecule, the TGI [34] was 51.5 µM, the TGI [35] was 22.3 µM and the TGI [36] was 25.9 µM. It also gave a TGI [37] greater than 26.1 µM, a TGI [38] greater than 58.3 µM and a TGI [39] of 23.9 µM. For the same molecule, the TGI [40] was 39.9 µM, the TGI [41] was greater than 57.1 µM and the TGI [42] was greater than 59.9 µM. It also gave a TGI [43] greater than 44.7 µM, a TGI [44] of 34.6 µM and a TGI [45] greater than 100 µM. It also gave a TGI [46] of 63.5 µM, a TGI [47] of 9.95 µM and a TGI [48] of 50.2 µM. For the same molecule, the TGI [49] was 32.9 µM, the TGI [50] was greater than 100 µM and the TGI [51] was 7.32 µM. The TGI [52] was 43.2 µM, the TGI [53] was 39 µM and the TGI [54] was greater than 62.9 µM. It also gave a TGI [55] of 54.6 µM, a TGI [56] of 11.6 µM and a TGI [57] of 29.8 µM. The TGI [58] was greater than 100 µM.

Source: PubChem BioAssay (NCI)
